Experimental findings from PubChem BioAssay (NCI) are described below.

“And” between values parts separate entries of the source, which are not always exact repeats. Equal values may be shown once.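 Exposure lasted 48 hours, with cells grown in 96-well plates and compounds tested at five concentrations. GI50 is the concentration that inhibits growth by half. TGI marks complete inhibition of growth.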

Among the test systems are 786-0 renal; BT-549 breast; CCRF-CEM leukemia; HL-60(TB) leukemia; HOP-92 NSCLC; MALME-3M melanoma; RPMI-8226 leukemia; SNB-19 CNS; TK-10 renal; UACC-62 melanoma.
Common to all, as to experiment: NCI-60 cell line screen, 48 h

For the compound `Cn1nnc2c(C(N)=O)ncn2c1=O`, the TGI with 786-0 renal, in the test with BT-549 breast, in the test with CCRF-CEM leukemia, in the test on HL-60(TB) leukemia, with HOP-92 NSCLC and in the test with MALME-3M melanoma was above 100 µM in each case. Also, the TGI in the test on RPMI-8226 leukemia, in the test with SNB-19 CNS, in the test on TK-10 renal and with UACC-62 melanoma was above 100 µM throughout.

For the compound `COc1cc(/C=C/[N+](=O)[O-])cc(OC)c1OC`, the GI50 with 786-0 renal is 1.9 µM; in the test on BT-549 breast, 2.19 µM; with CCRF-CEM leukemia it was 3.35 µM; in the test on HL-60(TB) leukemia it was 4.95 µM; in the test with HOP-92 NSCLC, 2.25 µM; with MALME-3M melanoma, 2.29 µM. Further, the GI50 is 3.14 µM in the test on RPMI-8226 leukemia, 5.64 µM with SNB-19 CNS, 2.49 µM in the test on TK-10 renal and 1.72 µM in the test on UACC-62 melanoma. Also, the TGI with 786-0 renal worked out at 3.53 µM; with BT-549 breast, 4.57 µM; with CCRF-CEM leukemia it was 15.4 µM; in the test with HL-60(TB) leukemia, 55.9 µM; with HOP-92 NSCLC, 6.52 µM; in the test on MALME-3M melanoma, 6.06 µM. For the same compound, the TGI in the test on RPMI-8226 leukemia amounted to 8.59 µM; with SNB-19 CNS it was 18.4 µM; in the test on TK-10 renal, 6.07 µM; with UACC-62 melanoma it was 3.49 µM.

Turning to `Cc1c2ccncc2c(C)c2c1c1cc(CO)ccc1n2C`, the GI50 was 0.596 µM with 786-0 renal; 1.73 µM with BT-549 breast; 0.545 µM in the test on CCRF-CEM leukemia; 0.854 µM in the test with HL-60(TB) leukemia; 0.636 µM with HOP-92 NSCLC; 0.622 µM with MALME-3M melanoma. Also, the GI50 in the test on RPMI-8226 leukemia is 0.425 µM; with SNB-19 CNS, 0.431 µM; with TK-10 renal, 0.378 µM; with UACC-62 melanoma it was 0.287 µM. In addition, the TGI in the test on 786-0 renal was determined as 5.07 µM; in the test with BT-549 breast, 7.84 µM; in the test on CCRF-CEM leukemia, 4.18 µM; with HL-60(TB) leukemia, 5.6 µM; in the test with HOP-92 NSCLC, 4.87 µM; with MALME-3M melanoma it was 2.51 µM. Further, the TGI in the test with RPMI-8226 leukemia was 2.28 µM; in the test with SNB-19 CNS, 4.24 µM; in the test on TK-10 renal it was 1.91 µM; in the test with UACC-62 melanoma, 1.76 µM.

For `CCN(CC)C(=S)SSC(=S)N(CC)CC`, the GI50 in the test on 786-0 renal was 24.1 µM and 18.6 µM; with BT-549 breast it was 19.2 µM and 19.9 µM; with CCRF-CEM leukemia, 10.3 µM; with HL-60(TB) leukemia it was 25.9 µM and 22.4 µM; with HOP-92 NSCLC it was 15 µM and 40.4 µM; in the test with MALME-3M melanoma, 18 µM and 21 µM. The GI50 in the test with RPMI-8226 leukemia is 13.6 µM and 15 µM; in the test with SNB-19 CNS, 37.4 µM and 76.4 µM; in the test with TK-10 renal, 21.9 µM and 34.2 µM; in the test on UACC-62 melanoma, 15.2 µM and 18.1 µM. Besides, the TGI was > 56.2 µM and 39.7 µM in the test on 786-0 renal; 38 µM and 44.2 µM with BT-549 breast; 27.6 µM in the test with CCRF-CEM leukemia; 56.3 µM and 52.5 µM in the test on HL-60(TB) leukemia; 38.4 µM and 133 µM with HOP-92 NSCLC; 37.5 µM and 50 µM in the test with MALME-3M melanoma. Moreover, the TGI with RPMI-8226 leukemia is 30.5 µM and 46.6 µM; in the test with SNB-19 CNS, > 75.6 µM and 219 µM; in the test on TK-10 renal, 43.4 µM and 99.7 µM; in the test on UACC-62 melanoma it was 30.4 µM and 44.5 µM.

`CCN1C(=O)N(CC)C2C1NN=c1s/c(=C\c3ccc[nH]3)c(=O)n12` (stereo not given): the GI50 in the test on 786-0 renal was 0.614 µM; in the test with BT-549 breast, 0.834 µM; with CCRF-CEM leukemia, 0.402 µM; with HL-60(TB) leukemia, 0.285 µM; with HOP-92 NSCLC it was 13.4 µM; with MALME-3M melanoma, 0.546 µM. The GI50 was 0.481 µM with RPMI-8226 leukemia, 0.626 µM with SNB-19 CNS, above 47.8 µM in the test on TK-10 renal and 0.435 µM in the test with UACC-62 melanoma. The TGI with 786-0 renal was above 100 µM; in the test with BT-549 breast it was above 100 µM; in the test on CCRF-CEM leukemia it was above 100 µM; in the test with HL-60(TB) leukemia it was 1.4 µM; in the test on HOP-92 NSCLC it was above 100 µM; in the test on MALME-3M melanoma, above 100 µM. Moreover, the TGI in the test on RPMI-8226 leukemia, in the test with SNB-19 CNS, in the test on TK-10 renal and in the test on UACC-62 melanoma was above 100 µM throughout.

Take `O=c1c(O)cccn1CCCN(CCCn1cccc(O)c1=O)CCn1cccc(O)c1=O`: the GI50 was 7.81 µM with 786-0 renal; 10.5 µM in the test with BT-549 breast; 0.386 µM with CCRF-CEM leukemia; 5.54 µM in the test on HL-60(TB) leukemia; 6.1 µM in the test on HOP-92 NSCLC; 9.72 µM in the test with MALME-3M melanoma. Also, the GI50 in the test with RPMI-8226 leukemia was 1.99 µM; in the test on SNB-19 CNS, 3.78 µM; in the test on TK-10 renal it was 7.92 µM; in the test with UACC-62 melanoma it was 2.14 µM. The TGI was above 100 µM in the test on 786-0 renal; above 100 µM in the test with BT-549 breast; 3.79 µM in the test on CCRF-CEM leukemia; 55.3 µM with HL-60(TB) leukemia; above 100 µM with HOP-92 NSCLC; 85.9 µM in the test with MALME-3M melanoma. In addition, the TGI is above 100 µM with RPMI-8226 leukemia, above 100 µM in the test with SNB-19 CNS, above 100 µM in the test on TK-10 renal and 76 µM with UACC-62 melanoma.
